For 1 compound, clinical effectiveness results are on record in US20100113607A1, “Pharmaceutical Compositions” (priority 2000, published 2010).

This assay concerns onychomycosis. Kind of assay: Topical treatment of a laser-perforated nail of a patient suffering from onychomycosis. It counts as in vivo, human. The following applies: composition containing 10% terbinafine by total weight, administered to laser-perforated nail, once daily for 12 weeks. The protocol: A composition containing 10% terbinafine based on the total weight of the composition is prepared and administered to a laser-perforated nail of a patient suffering from onychomycosis once daily for 12 weeks.

On to `CN(C/C=C/C#CC(C)(C)C)Cc1cccc2ccccc12` [terbinafine], for which the clinical effectiveness entry is recorded as “progress of clinical effectiveness is seen with growth of the healthy nail”.
